Laboratory results from the CheMixHub drug solubility set.

Assay: xn = mol fraction of the nth substance listed, in the solute-free solvent

COc1cc2c(cc1OC)-c1cc3ccc(OC)c(OC)c3c[n+]1CC2.[Cl-] + O + CC(C)O
solubility (g/100 g solution)
Conditions | 283.15 K | 288.15 K | 293.15 K | 298.15 K | 303.15 K | 308.15 K | 313.15 K | 318.15 K | 323.15 K | 328.15 K
x2 = 0.2703 | 0.15 | 0.185 | 0.238 | 0.315 | 0.402 | 0.504 | 0.629 | 0.775 | 0.949 | 1.16
x2 = 0.4546 | 0.201 | 0.247 | 0.317 | 0.417 | 0.531 | 0.663 | 0.824 | 1.01 | 1.24 | 1.51
x2 = 0.5883 | 0.269 | 0.33 | 0.423 | 0.553 | 0.7 | 0.872 | 1.08 | 1.32 | 1.6 | 1.95
x2 = 0.6897 | 0.356 | 0.437 | 0.559 | 0.725 | 0.933 | 1.19 | 1.46 | 1.76 | 2.11 | 2.49
x2 = 0.7693 | 0.463 | 0.593 | 0.762 | 0.958 | 1.25 | 1.49 | 1.82 | 2.18 | 2.62 | 3.11
x2 = 0.8334 | 0.587 | 0.719 | 0.914 | 1.17 | 1.46 | 1.8 | 2.19 | 2.65 | 3.18 | 3.81
x2 = 0.8861 | 0.724 | 0.887 | 1.12 | 1.43 | 1.85 | 2.25 | 2.72 | 3.24 | 3.85 | 4.53
x2 = 0.9303 | 0.871 | 1.07 | 1.35 | 1.7 | 2.17 | 2.67 | 3.23 | 3.87 | 4.64 | 5.28
x2 = 0.9678 | 1.03 | 1.26 | 1.59 | 1.99 | 2.5 | 3.05 | 3.69 | 4.4 | 5.23 | 6.04

COc1cc2c(cc1OC)-c1cc3ccc(OC)c(OC)c3c[n+]1CC2.[Cl-] + O + CC(O)CO
solubility (g/100 g solution)
Conditions | 283.15 K | 288.15 K | 293.15 K | 298.15 K | 303.15 K | 308.15 K | 313.15 K | 318.15 K | 323.15 K | 328.15 K
x2 = 0.3194 | 0.0156 | 0.0224 | 0.0316 | 0.0473 | 0.0678 | 0.0953 | 0.132 | 0.184 | 0.251 | 0.339
x2 = 0.5135 | 0.0475 | 0.0664 | 0.0917 | 0.133 | 0.186 | 0.256 | 0.347 | 0.47 | 0.626 | 0.826
x2 = 0.6441 | 0.104 | 0.142 | 0.193 | 0.274 | 0.376 | 0.505 | 0.672 | 0.891 | 1.17 | 1.51
x2 = 0.7379 | 0.183 | 0.245 | 0.329 | 0.457 | 0.614 | 0.811 | 1.06 | 1.38 | 1.78 | 2.26
x2 = 0.8085 | 0.279 | 0.368 | 0.512 | 0.702 | 0.905 | 1.16 | 1.5 | 1.92 | 2.41 | 3
x2 = 0.8636 | 0.395 | 0.513 | 0.673 | 0.9 | 1.21 | 1.57 | 1.97 | 2.46 | 3.04 | 3.73
x2 = 0.9079 | 0.537 | 0.688 | 0.893 | 1.17 | 1.55 | 1.96 | 2.44 | 3 | 3.69 | 4.46
x2 = 0.9441 | 0.72 | 0.971 | 1.23 | 1.57 | 1.95 | 2.41 | 2.97 | 3.63 | 4.39 | 5.26
x2 = 0.9744 | 0.947 | 1.18 | 1.5 | 1.9 | 2.41 | 2.97 | 3.61 | 4.32 | 5.17 | 6.09

CC(N)C(=O)O (stereo not given) + O + CCCO
solubility (g/100 g solution)
Conditions | x2 = 0.1 | x2 = 0.2 | x2 = 0.3 | x2 = 0.4 | x2 = 0.5 | x2 = 0.6 | x2 = 0.7 | x2 = 0.8 | x2 = 0.9
283.15 K | 0.0276 | 0.0472 | 0.0784 | 0.143 | 0.358 | 0.635 | 1.29 | 2.39 | 4.58
293.15 K | 0.0384 | 0.0536 | 0.0822 | 0.164 | 0.384 | 0.742 | 1.56 | 3.01 | 5.63
303.15 K | 0.0461 | 0.0689 | 0.0947 | 0.202 | 0.439 | 0.892 | 1.89 | 3.69 | 6.82
313.15 K | 0.0649 | 0.0791 | 0.109 | 0.224 | 0.504 | 1.12 | 2.27 | 4.41 | 8.24
323.15 K | 0.0824 | 0.114 | 0.147 | 0.268 | 0.594 | 1.29 | 2.65 | 5.2 | 9.44
